Measurements: article PMC9143880, “Improving Antimicrobial Activity and Physico-Chemical Properties by Isosteric Replacement of 2-Aminothiazole with 2-Aminooxazole” (Pharmaceuticals, 2022)
≈ marks a conversion by molar mass, not a printed value. Where two headings read alike, the source gives them in different places.

Columns and labels:
M. tuberculosis H37Rv = details: whole cell; cited from earlier work
Mtb laboratory ID IZAK = type: cell-based, Mycobacterium tuberculosis; details: MDR strain IZAK, CLSI breakpoints 2020
[1] = system: M. kansasii DSM 44162 (ATCC 12478); assay: Antimycobacterial MIC, microdilution broth / resazurin; type: cell-based; details: Mycobacterium kansasii; resazurin after 96 h; read-out: MIC M. kansasii
Mtb laboratory ID MATI = type: cell-based, Mycobacterium tuberculosis; details: MDR strain MATI, CLSI breakpoints 2021
[2] = system: M. smegmatis DSM 43465 (ATCC 607); assay: Antimycobacterial MIC, microdilution broth / resazurin; type: cell-based; details: Mycolicibacterium smegmatis; resazurin after 48 h; read-out: MIC M. smegmatis
[3] = system: M. aurum DSM 43999 (ATCC 23366); assay: as above; type: cell-based; details: Mycolicibacterium aurum, read-out: MIC M. aurum
[4] = system: Mtb H37Rv CNCTC My 331/88 (ATCC 27294); assay: microbe, parasite or virus in culture; type: cell-based; details: Mycobacterium tuberculosis, read-out: MIC Mtb H37Rv
[5] = system: Mtb MATI (MDR clinical isolate); assay: microbe, parasite or virus in culture; type: cell-based; details: Mycobacterium tuberculosis, read-out: MIC Mtb MATI
[6] = system: Mtb IZAK (MDR clinical isolate); assay: microbe, parasite or virus in culture; type: cell-based; details: Mycobacterium tuberculosis, read-out: MIC Mtb IZAK
[7] = system: M. avium DSM 44156 (ATCC 25291); assay: Antimycobacterial MIC, microdilution broth / resazurin; type: cell-based, Mycobacterium avium; details: Mycobacterium avium; resazurin after 96 h; read-out: MIC M. avium
[8] = system: Mycobacterium tuberculosis H37Ra ITM-M006710 (ATCC 9431); assay: Antimycobacterial MIC, microdilution broth / Alamar Blue (resazurin); type: cell-based; details: Mycobacterium tuberculosis, 120 h, Middlebrook 7H9, resazurin after 120 h; read-out: Mtb H37Ra MIC

SMILES | MIC (M. tuberculosis H37Rv) | Concentration (susceptibility profile) (Mtb laboratory ID IZAK) | Susceptibility (Mtb laboratory ID IZAK) | MIC [1] | Concentration (susceptibility profile) (Mtb laboratory ID MATI) | Susceptibility (Mtb laboratory ID MATI) | MIC [2] | MIC ([3]; resazurin after 72 h) | MIC [4] | MIC [5] | MIC [6] | MIC [7] | MIC [8] | MIC ([3]; 72 h)
O=C(Nc1nc(-c2ccccn2)cs1)c1ccncc1 [B] | 1.6 to 3.1 µM | – | – | – | – | – | – | – | – | – | – | – | – | –
CO[C@H]1/C=C/O[C@@]2(C)Oc3c(C)c(O)c4c(O)c(c(/C=N/N5CCN(C)CC5)c(O)c4c3C2=O)NC(=O)/C(C)=C\C=C\[C@H](C)[C@H](O)[C@@H](C)[C@@H](O)[C@@H](C)[C@H](OC(C)=O)[C@@H]1C [RIF, rifampicin] | – | > 8 µg/mL | resistant | 0.025 µg/mL (≈ 0.0304 µM) | > 8 µg/mL | resistant | 12.5 µg/mL (≈ 15.2 µM) | 0.39 µg/mL (≈ 0.474 µM) | – | – | – | – | – | –
CC[C@@H](CO)NCCN[C@@H](CC)CO [EMB, ethambutol] | – | 0.5 µg/mL | sensitive | – | 0.5 µg/mL | sensitive | – | – | 0.39 µg/mL (≈ 1.91 µM) | 1.56 µg/mL (≈ 7.64 µM) | 1.56 µg/mL (≈ 7.64 µM) | – | – | –
NNC(=O)c1ccncc1 [INH, isoniazid, reference compound] | – | – | – | 3.12 to 6.25 µg/mL (≈ 22.8 to 45.6 µM) | – | resistant | 15.6 to 31.2 µg/mL (≈ 114 to 228 µM) | – | 0.39 µg/mL (≈ 2.84 µM) | 12.5 µg/mL (≈ 91.1 µM) | 12.5 µg/mL (≈ 91.1 µM) | 1000 µg/mL (≈ 7290 µM) | 0.25 µg/mL (≈ 1.82 µM) | 3.91 µg/mL (≈ 28.5 µM)
